Laboratory results: patent US7745495B2, “Pyridine ketones with herbicidal effect” (Syngenta Crop Protection, Inc., priority 2004, dated 2010)

What was measured:
Assay type in all cases: in vivo
Panicum [1] = assay: Pre-emergence herbicidal action; conditions: 250 g/ha; after 3 weeks; rating 10=total damage, 0=no action
Protocol: (§1) Monocotyledonous and dicotyledonous test plants are sown in standard soil in plastic pots. […] The test plants are then grown in a greenhouse under optimum conditions. After a test duration of 3 weeks, the test is evaluated in accordance with a scale of ten ratings (10=total damage, 0=no action). Ratings of from 10 to 7 (especially from 10 to 8) indicate good to very good herbicidal action.

Abutilon [2] = assay: Pre-emergence herbicidal action; conditions: 250 g/ha; after 3 weeks; rating 10=total damage, 0=no action
Protocol: as §1

Digitaria [3] = assay: Pre-emergence herbicidal action; conditions: 250 g/ha; after 3 weeks; rating 10=total damage, 0=no action
Protocol: as §1

Amaranthus = assay: Pre-emergence herbicidal action; conditions: 250 g/ha; after 3 weeks; rating 10=total damage, 0=no action
Protocol: as §1

Echinochloa = assay: Pre-emergence herbicidal action; conditions: 250 g/ha; after 3 weeks; rating 10=total damage, 0=no action
Protocol: as §1

Stellaria [4] = assay: Pre-emergence herbicidal action; conditions: 250 g/ha; after 3 weeks; rating 10=total damage, 0=no action
Protocol: (§2) Monocotyledonous and dicotyledonous test plants are sown in standard soil in plastic pots. Immediately after sowing, the test compounds, in the form of an aqueous suspension (prepared from a 25% wettable powder (Example F3, b) according to WO 97/34485) or in the form of an emulsion (prepared from a 25% emulsifiable concentrate (Example F1, c)), are applied by spraying a concentration corresponding to 125 g or 250 g of active ingredient/ha (500 liter of water/ha). The test plants are then grown in a greenhouse under optimum conditions. After a test duration of 3 weeks, the test is evaluated in accordance with a scale of ten ratings (10=total damage, 0=no action). Ratings of from 10 to 7 (especially from 10 to 8) indicate good to very good herbicidal action.

Chenopodium [5] = assay: Pre-emergence herbicidal action; conditions: 250 g/ha; after 3 weeks; rating 10=total damage, 0=no action
Protocol: as §2

Panicum [6] = assay: Post-emergence herbicidal action; conditions: 250 g/ha; 4- to 6-leaf stage; after about 18 days; rating 10=total damage, 0=no action
Protocol: (§3) In a greenhouse, monocotyledonous and dicotyledonous test plants are grown in standard soil in plastic pots and at the 4- to 6-leaf stage are sprayed with an aqueous suspension of the test compounds of formula I prepared from a 25% wettable powder (Example F3, b) according to WO 97/34485) or with an emulsion of the test compounds of formula I prepared from a 25% emulsifiable concentrate (Example F1, c) according to WO 97/34485), in a concentration corresponding to 125 g or 250 g of active ingredient/ha (500 liter of water/ha). The test plants are then grown on in a greenhouse under optimum conditions. After a test duration of about 18 days, the test is evaluated in accordance with a scale of ten ratings (10=total damage, 0=no action). Ratings of from 10 to 7 (especially from 10 to 8) indicate good to very good herbicidal action.

Abutilon [7] = assay: Post-emergence herbicidal action; conditions: 250 g/ha; 4- to 6-leaf stage; after about 18 days; rating 10=total damage, 0=no action
Protocol: as §3

Digitaria [8] = assay: Post-emergence herbicidal action; conditions: 250 g/ha; 4- to 6-leaf stage; after about 18 days; rating 10=total damage, 0=no action
Protocol: as §3

Ipomea = assay: Post-emergence herbicidal action; conditions: 250 g/ha; 4- to 6-leaf stage; after about 18 days; rating 10=total damage, 0=no action
Protocol: as §3

Stellaria [9] = assay: Post-emergence herbicidal action; conditions: 250 g/ha; 4- to 6-leaf stage; after about 18 days; rating 10=total damage, 0=no action
Protocol: as §3

Chenopodium [10] = assay: Post-emergence herbicidal action; conditions: 250 g/ha; 4- to 6-leaf stage; after about 18 days; rating 10=total damage, 0=no action
Protocol: as §3

Sinapis = assay: Post-emergence herbicidal action; conditions: 250 g/ha; 4- to 6-leaf stage; after about 18 days; rating 10=total damage, 0=no action
Protocol: as §3

Setaria = assay: Post-emergence herbicidal action; conditions: 250 g/ha; 4- to 6-leaf stage; after about 18 days; rating 10=total damage, 0=no action
Protocol: as §3

## CCOCCCc1nc(C(F)(F)F)ccc1C(=O)C1C(=O)C2CCC(C2)C1=O (stereo not drawn) [Compound H-15]
Panicum [1]
  Pre-emergence herbicidal action: Panicum: 10
Abutilon [2]
  Pre-emergence herbicidal action: Abutilon: 10
Digitaria [3]
  Pre-emergence herbicidal action: Digitaria: 9
Amaranthus
  Pre-emergence herbicidal action: Amaranthus: 10
Echinochloa
  Pre-emergence herbicidal action: Echinochloa: 10
Stellaria [4]
  Pre-emergence herbicidal action: Stellaria: 10
Chenopodium [5]
  Pre-emergence herbicidal action: Chenopodium: 10
Panicum [6]
  Post-emergence herbicidal action: Panicum: 9
Abutilon [7]
  Post-emergence herbicidal action: Abutilon: 9
Digitaria [8]
  Post-emergence herbicidal action: Digitaria: 8
Ipomea
  Post-emergence herbicidal action: Ipomea: 8
Stellaria [9]
  Post-emergence herbicidal action: Stellaria: 9
Chenopodium [10]
  Post-emergence herbicidal action: Chenopodium: 10
Sinapis
  Post-emergence herbicidal action: Sinapis: 9
Setaria
  Post-emergence herbicidal action: Setaria: 8

## COCCCc1nc(C(F)F)ccc1C(=O)C1C(=O)C2CCCC(C2)C1=O (stereo not drawn) [Compound H-21]
Panicum [1]
  Pre-emergence herbicidal action: Panicum: 10
Abutilon [2]
  Pre-emergence herbicidal action: Abutilon: 7
Digitaria [3]
  Pre-emergence herbicidal action: Digitaria: 10
Amaranthus
  Pre-emergence herbicidal action: Amaranthus: 7
Echinochloa
  Pre-emergence herbicidal action: Echinochloa: 9
Stellaria [4]
  Pre-emergence herbicidal action: Stellaria: 10
Chenopodium [5]
  Pre-emergence herbicidal action: Chenopodium: 10
Panicum [6]
  Post-emergence herbicidal action: Panicum: 9
Abutilon [7]
  Post-emergence herbicidal action: Abutilon: 8
Digitaria [8]
  Post-emergence herbicidal action: Digitaria: 9
Ipomea
  Post-emergence herbicidal action: Ipomea: 8
Stellaria [9]
  Post-emergence herbicidal action: Stellaria: 8
Chenopodium [10]
  Post-emergence herbicidal action: Chenopodium: 9
Sinapis
  Post-emergence herbicidal action: Sinapis: 9
Setaria
  Post-emergence herbicidal action: Setaria: 8
